Assay results: publication PMC9668969 (Nature Communications, 2022)

Assays:
Type in all cases: biochemical, Erwinia chrysanthemi
Conditions in all cases: 25 mol% outer leaflet POPG, 10 mM propylamine
ELIC R117A = assay: Asymmetric liposome stopped-flow Tl+ flux assay, mutant
Description: We next tested the effect of mutations that directly interact with the phospholipid in the ELIC5 CA structure (R117, T259), or are near this site and previously shown to interact with cardiolipin (S202, R318A, T259A and W206F) (Fig. 6a)[14]. The mutations were tested as for WT by examining the effect of 25 mol% outer leaflet POPG in paired (no exchange versus exchange) samples (Supplementary Fig. 15). […] Despite the mutations having various effects on ELIC agonist responses, comparison of no exchange and exchange samples enabled assessment of the effect of POPG.
The fluorescence sequential-mixing stopped-flow liposomal flux measurements were carried using an SX20 stopped-flow spectrofluorometer (Applied Photophysics) and Pro-Data SX software[13],[30]. […]
Using propylamine as the agonist, the assay and analysis was carried out as previously described[13],[30]. […] After a variable delay of 10 ms to 25 s, the sample was then mixed 1:1 with a quenching buffer (90 mM NaNO3, 50 mM TlNO3, 10 mM HEPES, pH 7), and ANTS fluorescence (ex. 360 nm, fluorescence above 420 nm) was recorded for 1 s. […] The time course of desensitization was also fit to a double exponential and a weighted time constant was calculated as was done for the patch-clamp data using Origin 2019b. […]
Acceptor liposomes were prepared as described in the Stopped-flow fluorescence recordings section until completion of the extrusion step. […]

ELIC Q264L = biological target: T1, ELIC Q264L (Dickeya chrysanthemi, UniProt P0C7B7, Q263L)
T1 construct: host or cells: OverExpress C43 (DE3) E. coli
T1 sequence (P0C7B7 whole entry Q263L): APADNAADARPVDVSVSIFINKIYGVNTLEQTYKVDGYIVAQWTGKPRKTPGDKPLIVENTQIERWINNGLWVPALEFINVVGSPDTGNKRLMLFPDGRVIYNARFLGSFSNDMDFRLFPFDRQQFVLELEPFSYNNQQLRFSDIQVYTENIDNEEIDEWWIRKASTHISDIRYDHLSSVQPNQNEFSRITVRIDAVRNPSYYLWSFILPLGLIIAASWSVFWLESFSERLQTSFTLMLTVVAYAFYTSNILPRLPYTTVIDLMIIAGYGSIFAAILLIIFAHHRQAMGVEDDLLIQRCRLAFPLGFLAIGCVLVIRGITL
Description: (§1) The mutations were tested as for WT by examining the effect of 25 mol% outer leaflet POPG in paired (no exchange versus exchange) samples (Supplementary Fig. 15).
(§2) The fluorescence sequential-mixing stopped-flow liposomal flux measurements were carried using an SX20 stopped-flow spectrofluorometer (Applied Photophysics) and Pro-Data SX software[13],[30]. 7.5 mg of the respective lipid mixture (POPC, 1:1 POPC: POPE, 1:1 POPC:POPG, 3:1 POPC:POPE, 3:1 POPC:POPG, 2:1:1 POPC:POPE:POPG) was dried in a glass vial to a thin film under a constant stream of N2. The lipids were then further dried under vacuum in a desiccator overnight. The following day the lipids were hydrated in 500 µl of reconstitution buffer (100 mM NaNO3, 10 mM HEPES, pH 7) (Buffer R), 250 µl of 75 mM 8-Aminonaphthalene-1,3,6-Trisulfonic Acid (ANTS, ThermoFisher Scientific) in buffer R, and doped with ~18 mg of CHAPS (Anatrace). The mixture was vortexed and then sonicated with heat until completely solubilized. Following the sonication, the solution was brought to RT then 3.5 µl of 6.7 mg/ml ELIC in Buffer A with 0.02% DDM was added (3 µg per mg of lipid). This combined solution was incubated at RT for 30 min, followed by the addition of 1 ml of 1:1 v/v SM-2 BioBeads in Buffer R and an additional 250 µl of 75 mM ANTS in Buffer R. This mixture was incubated at RT for 2.5 hr with gentle mixing. The liposome suspension was then extruded with an Avanti mini-extruder and 0.1 µm membrane (30×). The extruded liposomes were stored at 13 °C overnight with gentle rotation. The next day, the liposomes were diluted to 2.5 mL using assay buffer (140 mM NaNO3, 10 mM HEPES, pH 7) (Stopped-flow Buffer A), loaded into a PD-10 desalting column (Cytiva), eluted with 3 mL of Stopped-flow Buffer A and subsequently diluted 5-fold with Stopped-flow Buffer A.
(§3) Using propylamine as the agonist, the assay and analysis was carried out as previously described[13],[30].

ELIC R318A = biological target: T2, ELIC R318A (Dickeya chrysanthemi, UniProt P0C7B7, R317A)
T2 construct: host or cells: OverExpress C43 (DE3) E. coli
T2 sequence (P0C7B7 whole entry R317A): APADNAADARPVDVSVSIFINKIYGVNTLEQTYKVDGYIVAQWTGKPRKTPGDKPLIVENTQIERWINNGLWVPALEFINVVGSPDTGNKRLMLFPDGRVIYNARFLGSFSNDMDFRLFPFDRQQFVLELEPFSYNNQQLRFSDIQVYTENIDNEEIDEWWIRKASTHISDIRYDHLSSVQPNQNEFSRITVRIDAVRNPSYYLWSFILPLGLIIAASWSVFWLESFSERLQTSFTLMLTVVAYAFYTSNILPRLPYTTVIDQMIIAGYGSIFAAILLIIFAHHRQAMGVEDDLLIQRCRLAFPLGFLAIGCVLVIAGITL
Description: as §1, §2, §3

ELIC S202A = biological target: T3, ELIC S202A (Dickeya chrysanthemi, UniProt P0C7B7, S201A)
T3 construct: host or cells: OverExpress C43 (DE3) E. coli
T3 sequence (P0C7B7 whole entry S201A): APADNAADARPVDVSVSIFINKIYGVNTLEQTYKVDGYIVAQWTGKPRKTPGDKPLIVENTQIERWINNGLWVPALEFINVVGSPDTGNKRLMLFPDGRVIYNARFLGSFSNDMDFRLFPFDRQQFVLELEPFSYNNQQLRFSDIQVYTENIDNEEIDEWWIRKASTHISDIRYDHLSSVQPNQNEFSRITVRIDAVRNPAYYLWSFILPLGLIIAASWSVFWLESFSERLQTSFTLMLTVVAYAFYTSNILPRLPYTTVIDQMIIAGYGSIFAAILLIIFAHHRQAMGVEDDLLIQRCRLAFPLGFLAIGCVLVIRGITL
Description: as §1, §2, §3

ELIC T259A = biological target: T4, ELIC T259A (Dickeya chrysanthemi, UniProt P0C7B7, T258A/T259A)
T4 construct: host or cells: OverExpress C43 (DE3) E. coli
T4 sequence (P0C7B7 whole entry T258A/T259A): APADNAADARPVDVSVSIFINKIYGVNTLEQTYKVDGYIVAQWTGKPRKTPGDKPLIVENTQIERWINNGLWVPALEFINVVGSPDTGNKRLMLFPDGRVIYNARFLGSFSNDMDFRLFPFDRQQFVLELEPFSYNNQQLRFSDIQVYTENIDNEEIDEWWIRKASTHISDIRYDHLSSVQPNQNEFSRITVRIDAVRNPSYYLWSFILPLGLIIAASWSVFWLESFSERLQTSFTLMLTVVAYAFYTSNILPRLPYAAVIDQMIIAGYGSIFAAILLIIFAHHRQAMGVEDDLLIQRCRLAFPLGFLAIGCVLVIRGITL
Description: as §1, §2, §3

ELIC W206F = biological target: T5, ELIC W206F (Dickeya chrysanthemi, UniProt P0C7B7, W205F)
T5 construct: host or cells: OverExpress C43 (DE3) E. coli
T5 sequence (P0C7B7 whole entry W205F): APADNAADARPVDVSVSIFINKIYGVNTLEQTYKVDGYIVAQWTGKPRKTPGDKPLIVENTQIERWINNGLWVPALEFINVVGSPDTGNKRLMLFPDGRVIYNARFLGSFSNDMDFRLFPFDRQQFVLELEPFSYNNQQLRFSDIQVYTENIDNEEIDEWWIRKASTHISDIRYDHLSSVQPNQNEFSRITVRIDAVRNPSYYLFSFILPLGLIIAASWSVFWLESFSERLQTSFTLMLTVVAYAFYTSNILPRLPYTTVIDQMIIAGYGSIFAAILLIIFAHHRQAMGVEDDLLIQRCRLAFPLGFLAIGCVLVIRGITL
Description: as §1, §2, §3

CCCCCCCC/C=C\CCCCCCCC(=O)OC(COC(=O)CCCCCCCCCCCCCCC)COP(=O)(O)OCC(O)CO (stereo not shown) [POPG, 1-palmitoyl-2-oleoyl-phosphatidylglycerol]
POPG modulation (peak response and desensitization) (ELIC R117A): both effects of POPG (increased peak response and decreased desensitization) are abolished | POPG modulation (peak response and desensitization) (ELIC Q264L): POPG modulation is preserved | increase in the measurable peak response (ELIC Q264L): 2 × | POPG modulation (peak response and desensitization) (ELIC R318A): POPG only decreases desensitization | POPG modulation (peak response and desensitization) (ELIC S202A): both effects of POPG (increased peak response and decreased desensitization) are abolished | POPG modulation (peak response and desensitization) (ELIC T259A): POPG only decreases desensitization | POPG modulation (peak response and desensitization) (ELIC W206F): POPG only decreases desensitization
